{
  "source": "patent US8003694B2",
  "about": "“Crystal of hydroxynorephedrin derivative hydrochloride ¼ hydrate” (Kissei Pharmaceutical Co., Ltd., priority 2005, dated 2011)",
  "key": {"[1]": {"assay": "Solubility Test (shake flask at 37° C., HPLC)", "format": "physicochemical", "conditions": "for solubility in The First Fluid: first fluid of disintegration test of Japanese Pharmacopoeia; for solubility in The First Fluid / solubility in water: shaken 125 strokes per minute, constant or maximum concentration over 0.5-20 hours", "procedure": "Each crystal polymorph (0.4 g), which was prepared by the above method, was taken in 50 mL Erlenmeyer flask respectively, and to the mixture was added 20 mL of the mediums as defined below. The flask was shaken at 125 strokes per minute at 37° C. After 0.5, 1, 2 and 20 hours from the start of shaking, 1.5 mL of the suspension was filtered through a membrane filter (pore size: 0.2 μm). The concentration of the filtrate for each crystal polymorph was determined by HPLC method to determine the solubility. The concentration where the concentration became constant by the temporal measurements of the concentration was determined to be the solubility of each polymorph, and the results are shown in Table 1. […] In the cases of crystalline form F and amorphous form, since these samples were dissolved completely in each medium within 0.5 hours after the start of the test, additional samples were added appropriately to the test flasks at the point of 0.5 hours after the start and the solubility tests were continued. The mediums: water or the first fluid of disintegration test of Japanese Pharmacopoeia (hereinafter referred to as The First Fluid)."}, "[2]": {"assay": "Chemical Stability Test (storage at 60° C. for 1 week, HPLC and appearance)", "format": "physicochemical", "procedure": "Crystalline form F obtained in Example 1 was stored at 60° C. for 1 week to investigate the chemical stability. As the chemical stability, the residual percentage of ethyl (−)-2-[4-[2-[[(1S,2R)-2-hydroxy-2-(4-hydroxyphenyl)-1-methylethyl]amino]ethyl]-2,5-dimethylphenoxy]-acetate was determined by HPLC, and the change in appearance was also observed."}},
  "data": [
    {"molecule": "CCOC(=O)COc1cc(C)c(CCN[C@@H](C)[C@H](O)c2ccc(O)cc2)cc1C.Cl", "note": "[crystal form B, ethyl (−)-2-[4-[2-[[(1S,2R)-2-hydroxy-2-(4-hydroxyphenyl)-1-methylethyl]amino]-ethyl]-2,5-dimethylphenoxy]acetate hydrochloride]", "values": [
      {"measurement": "solubility in The First Fluid", "setting": "[1]; hydrochloride", "value": 2.9, "unit": "mg/mL"},
      {"measurement": "solubility in water", "setting": "[1]; hydrochloride", "value": 12.5, "unit": "mg/mL"}
    ]},
    {"molecule": "CCOC(=O)COc1cc(C)c(CCN[C@@H](C)[C@H](O)c2ccc(O)cc2)cc1C.Cl", "note": "[crystal form A, ethyl (−)-2-[4-[2-[[(1S,2R)-2-hydroxy-2-(4-hydroxyphenyl)-1-methylethyl]amino]-ethyl]-2,5-dimethylphenoxy]acetate hydrochloride]", "values": [
      {"measurement": "solubility in The First Fluid", "setting": "[1]; hydrochloride", "value": 2.4, "unit": "mg/mL"},
      {"measurement": "solubility in water", "setting": "[1]; hydrochloride", "value": 10.7, "unit": "mg/mL"}
    ]},
    {"molecule": "CCOC(=O)COc1cc(C)c(CCN[C@@H](C)[C@H](O)c2ccc(O)cc2)cc1C.Cl", "note": "[crystal form F, ethyl (−)-2-[4-[2-[[(1S,2R)-2-hydroxy-2-(4-hydroxyphenyl)-1-methylethyl]amino]ethyl]-2,5-dimethylphenoxy]acetate hydrochloride ¼ hydrate]", "values": [
      {"measurement": "solubility in The First Fluid relative to crystalline forms A and B and amorphous form", "setting": "[1]; The First Fluid", "value": "about 5 times"},
      {"measurement": "solubility in The First Fluid", "setting": "[1]; hydrate", "value": 11.8, "unit": "mg/mL"},
      {"measurement": "solubility in water", "setting": "[1]; hydrate", "value": 24.3, "unit": "mg/mL"},
      {"measurement": "appearance", "setting": "[2]; after 1 week at 60° C.", "value": "white"},
      {"measurement": "residual percentage (chemical purity %)", "setting": "[2]; after 1 week at 60° C.", "value": 98.1, "unit": "%"},
      {"measurement": "appearance", "setting": "[2]; at start", "value": "white"},
      {"measurement": "residual percentage (chemical purity %)", "setting": "[2]; at start", "value": 98.1, "unit": "%"},
      {"measurement": "changes in chemical purity and appearance", "setting": "[2]; stored at 60° C. for 1 week", "value": "no changes"}
    ]},
    {"molecule": "CCOC(=O)COc1cc(C)c(CCN[C@@H](C)[C@H](O)c2ccc(O)cc2)cc1C.Cl", "note": "[amorphous form, ethyl (−)-2-[4-[2-[[(1S,2R)-2-hydroxy-2-(4-hydroxyphenyl)-1-methylethyl]amino]ethyl]-2,5-dimethylphenoxy]acetate hydrochloride]", "values": [
      {"measurement": "solubility in The First Fluid", "setting": "[1]; hydrochloride", "value": 2.6, "unit": "mg/mL"},
      {"measurement": "solubility in water", "setting": "[1]; hydrochloride", "value": 17.8, "unit": "mg/mL"}
    ]}
  ]
}
